Data from US12616681B2, “Compositions and methods for treating renal injury” (priority 2019, dated 2026).

Assays:
[1] = test system: mice with ischemic AKI (bilateral renal IRI); assay: Renal IRI model: proinflammatory cytokines and HMGB1; type: in vivo, C57/BL6 mice; conditions: 24 h after renal IRI, vs IRI-vehicle mice
Procedure: Inflammatory cytokine mRNA and protein levels were measured by real-time PCR and ELISA. Kidney tissue and serum were harvested after reperfusion for 24 h. Total RNA was extracted from frozen kidney tissue using TRIzol reagent (ThermoFisher Scientific) according to the manufacturer's protocol. RNA was converted to cDNA using oligo-dT primers. IL-17, TNF-α, and IL-1b mRNA levels were determined by real-time PCR. Serum IL-17 (R&D Systems), TNF-α (R&D Systems), and IL-10 (R&D Systems) were measured using commercial ELISA kits according to the manufacturer's instructions.

[2] = test system: mice with ischemic AKI (bilateral renal IRI); assay: Renal IRI model: oxidative stress (MDA in kidney tissue); type: in vivo, C57/BL6 mice; conditions: single pre-IRI dose; vehicle peaked at 2 h at 48%
Procedure: Reactive oxygen species (ROS) levels were determined by measurement of malondialdehyde (MDA), the end product of lipid peroxidation in kidney lysates. Free MDA reacts with thiobarbituric acid (TBA) at 95° C. to generate an MDA-TBA adduct, which can be quantified colorimetrically at a wavelength of 532 nm. MDA levels were measured in kidney lysates using a lipid peroxidation (MDA) assay kit (Abcam, Cambridge, UK). Results were corrected for total protein level and are expressed as […].

[3] = test system: mice with ischemic AKI (bilateral renal IRI); assay: Renal IRI model: renal and serum PGE2 after a single pre-IRI dose; type: in vivo, C57/BL6 mice
Procedure: After reperfusion for 24 h, kidney tissues (˜20 mg) were homogenized in cold PBS containing indomethacin (10 μg/mL) and then centrifuged for 10 min at 12,000 rpm. Protein concentrations of supernatant were determined by BCA assay (ThermoFisher Scientific, Rockford, IL). The PGE2 level was measured using a PGE2 ELISA kit (R&D Systems, Minneapolis, MN) in triplicate. PGE2 levels were expressed as nanograms of PGE2 per milligram of protein. Renal function was assessed by determining the serum levels of blood urea nitrogen (BUN; Abcam), serum creatinine (Agilent 6410 LC-MS/MS, Agilent, Santa Clara, CA), lipocalin-2 (R&D Systems), and kidney injury molecule-1 (KIM-1; R&D Systems) after reperfusion for 24 h. Measurement of serum creatinine was by HPLC. Serum creatinine was assessed using an Agilent 6410 LC-MS/MS system coupled with an Agilent 1200 series HPLC system (Agilent). The sample preparation for serum creatinine was that 50 μL of serum samples were mixed with 100 μL of acetonitrile that contained creatinine-d3 as an internal standard (5 μg/mL). The mixture was centrifuged at 13,000 rpm for 10 min after vigorous vortex, and 1 μL of supernatant was then injected into the LC-MS/MS system. The chromatography separation was performed on a Hypersil GOLD C18 column (150×2.1 mm, 3 m, Thermo Scientific) using a mobile phase of 0.1% formic acid solution and acetonitrile [70:30 (vol/vol)]. The flow rate was 0.2 mL/min. Electrospray ionization was performed in the positive ion mode. The capillary voltage was set at 4,000 V. Nitrogen as the nebulizing gas was set at 15 psi, and the drying gas temperature was set at 300° C., with a flow rate of 6 L/min. The multiple-reaction monitoring mode using specific precursor/production transition was used for quantification. Detection of ions was performed by monitoring m/z 114.1→44.1 for creatinine and 117.1→77.1 for creatinine-d3. The collision energies were 10 and 15 eV for creatinine and creatinine-d3, respectively. The peak areas for all analytes were integrated automatically using Agilent Mass Hunter Analysis software (version B.01.04).

[4] = test system: PGE2 levels in kidney tissue; assay: Renal PGE2 levels in normal mice 1 h after injection (Example 2); type: in vivo
Procedure: Next, 20 mg kidney tissue was homogenized in […] cold PBS containing indomethacin (10 μg/mL) using a tissue homogenizer. The suspension was sonicated in an ice-water bath for 1 min using cycles of 10 s of sonication with 10 s of cooling, and then they were centrifuged for 10 min at 12,000 rpm. The supernatant was collected for PGE-2 assay. Protein concentrations were determined by bicinchoninic acid assay (Cat. #23225, Thermo Scientific). The PGE2 level in the supernatant was measured using a PGE2 enzyme-linked immunosorbent assay kit (R&D Systems, Minneapolis, MN, USA) in triplicate. PGE-2 levels were expressed as ng of PGE2/mg protein.

[5] = test system: contrast-induced acute kidney injury (CIAKI) mice; assay: CIAKI mouse model: PGE2 receptor (EP) expression in kidney tissue; type: in vivo, C57/BL6 mice; conditions: CM + drug

CCCC[S+]([O-])c1sc2nc(-c3cccs3)cc(-c3ccccc3)c2c1N (stereo not drawn) [SW033291]
HMGB1 levels in kidney tissue [1]: reduced | induction of IL-10 (protein only) [1]: blocked induction | induction of IL-17 [1]: blocked induction | induction of TNF-α [1]: blocked induction | MDA increase above baseline after renal IRI [2]: 14% | renal PGE2 levels ([3]; 24 h, single pretreatment dose): significantly decreased | serum PGE2 levels ([3]; 24 h, single pretreatment dose): significantly decreased | post-IRI peaks of renal PGE2 (immediate and 14 h) ([3]; single pre-IRI dose): substantially block | increase of renal PGE2 vs vehicle-administered normal mice ([4]; 1 h after administration, average): three times | renal PGE2 levels ([4]; normal mice, 1 h after ip 5 mg/kg): 29.71 ± 2.79 ng/mg | EP3 expression [5]: 1.00±0.02 fold | EP4 expression level [5]: 1.25±0.02 fold
